Laboratory results from ChEMBL document CHEMBL4619809, “Chemically Induced Degradation of WEE1 Kinase for Difficult to Treat Diseases” (ACS Med Chem Lett, 2020).

Each compound was assayed against Protein cereblon/Wee1-like protein kinase (Homo sapiens) (UniProt P30291+Q96SW2) (assay: Protac activity at CRBN/WEE1 in human MOLT4 cells assessed as induction of degradation of WEE1 at 1 uM incubated for 6 hrs by immunoblot analysis relative to control). Details: MOLT-4.
Chain of Protein cereblon/Wee1-like protein kinase (Homo sapiens) (P30291 whole entry, looked up): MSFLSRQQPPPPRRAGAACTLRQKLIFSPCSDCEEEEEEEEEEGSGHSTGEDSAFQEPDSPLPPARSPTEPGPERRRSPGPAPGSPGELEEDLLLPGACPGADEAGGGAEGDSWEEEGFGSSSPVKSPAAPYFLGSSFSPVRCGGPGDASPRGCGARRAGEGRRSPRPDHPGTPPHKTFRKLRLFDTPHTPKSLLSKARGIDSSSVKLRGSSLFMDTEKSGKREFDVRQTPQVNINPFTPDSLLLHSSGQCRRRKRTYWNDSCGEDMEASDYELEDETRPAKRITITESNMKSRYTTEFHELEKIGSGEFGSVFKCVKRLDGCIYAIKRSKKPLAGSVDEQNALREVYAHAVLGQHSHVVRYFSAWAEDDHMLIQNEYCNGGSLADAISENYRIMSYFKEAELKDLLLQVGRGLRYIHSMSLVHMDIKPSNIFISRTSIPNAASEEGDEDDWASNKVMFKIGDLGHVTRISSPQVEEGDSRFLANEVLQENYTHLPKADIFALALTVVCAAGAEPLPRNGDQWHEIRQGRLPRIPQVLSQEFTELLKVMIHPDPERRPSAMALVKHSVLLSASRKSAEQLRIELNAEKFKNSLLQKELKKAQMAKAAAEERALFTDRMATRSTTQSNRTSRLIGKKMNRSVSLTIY
Chain of Protein cereblon/Wee1-like protein kinase (Homo sapiens) (Q96SW2 whole entry, looked up): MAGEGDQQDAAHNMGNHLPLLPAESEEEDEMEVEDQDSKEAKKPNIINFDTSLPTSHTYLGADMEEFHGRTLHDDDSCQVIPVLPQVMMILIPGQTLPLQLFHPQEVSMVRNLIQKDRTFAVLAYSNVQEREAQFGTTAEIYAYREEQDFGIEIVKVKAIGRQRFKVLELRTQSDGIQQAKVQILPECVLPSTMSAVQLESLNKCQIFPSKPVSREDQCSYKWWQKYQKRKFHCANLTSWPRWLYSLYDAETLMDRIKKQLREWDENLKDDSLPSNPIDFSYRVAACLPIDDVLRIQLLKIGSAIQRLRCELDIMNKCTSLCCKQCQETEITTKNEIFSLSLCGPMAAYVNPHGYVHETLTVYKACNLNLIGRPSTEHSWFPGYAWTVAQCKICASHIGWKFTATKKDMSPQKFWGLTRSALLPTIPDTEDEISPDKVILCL
Format: cell-based
In the case of `C=CCn1c(=O)c2cnc(Nc3ccc(N4CCN(C(=O)CCOCCOCCNc5cccc6c5C(=O)N(C5CCC(=O)NC5=O)C6)CC4)cc3)nc2n1-c1cccc(C(C)(C)O)n1` (stereo not given), the Activity is reported as 25 to 50%. Compound `C=CCn1c(=O)c2cnc(Nc3ccc(N4CCN(CCCNC(=O)CCOCCOCCOCCOCCNc5cccc6c5C(=O)N(C5CCC(=O)NC5=O)C6=O)CC4)cc3)nc2n1-c1cccc(C(C)(C)O)n1` (stereo not given) has an Activity of over 50%. `C=CCn1c(=O)c2cnc(Nc3ccc(N4CCN(CCCNC(=O)CCOCCOCCNc5cccc6c5C(=O)N(C5CCC(=O)NC5=O)C6=O)CC4)cc3)nc2n1-c1cccc(C(C)(C)O)n1` (stereo not given) gave an Activity of over 50%. `C=CCn1c(=O)c2cnc(Nc3ccc(N4CCN(CCCNc5cccc6c5C(=O)N(C5CCC(=O)NC5=O)C6=O)CC4)cc3)nc2n1-c1cccc(C(C)(C)O)n1` (stereo not given) gave an Activity of over 50%. With `C=CCn1c(=O)c2cnc(Nc3ccc(N4CCN(CCCNc5cccc6c5C(=O)N(C5CCC(=O)NC5=O)C6=O)CC4)cc3)nc2n1-c1cccc(OC)n1` (stereo not given) the Activity was over 50%. With `C=CCn1c(=O)c2cnc(Nc3ccc(N4CCN(CCCNc5cccc6c5C(=O)N(C5CCC(=O)NC5=O)C6=O)CC4)cc3)nc2n1-c1cccc(C(F)(F)F)n1` (stereo not given) the Activity was over 50%. In the case of `C=CCn1c(=O)c2cnc(Nc3ccc(N4CCN(C(=O)CCOCCOCCNc5cccc6c5C(=O)N(C5CCC(=O)NC5=O)C6=O)CC4)cc3)nc2n1-c1cccc(C(C)(C)O)n1` (stereo not given), the Activity is reported as over 50%. `C=CCn1c(=O)c2cnc(Nc3ccc(N4CCN(C(=O)CCOCCOCCOCCN5CCN(Cc6ccc(COc7cccc8c7CN([C@H]7CCC(=O)NC7=O)C8=O)cc6)CC5)CC4)cc3)nc2n1-c1cccc(C(C)(C)O)n1` was tested, and the Activity was over 50%. Work on `C=CCn1c(=O)c2cnc(Nc3ccc(N4CCN(C(=O)CCOCCNc5cccc6c5C(=O)N(C5CCC(=O)NC5=O)C6=O)CC4)cc3)nc2n1-c1cccc(C(C)(C)O)n1` (stereo not given) yielded an Activity of over 50%. For `C=CCn1c(=O)c2cnc(Nc3ccc(N(C)CCCCNc4cccc5c4C(=O)N(C4CCC(=O)NC4=O)C5=O)cc3)nc2n1-c1cccc(C(C)(C)O)n1` (stereo not given), the Activity was over 50%.
